From patent US20220370534A1, “EXTERNAL COMPOSITION FOR SKIN HAVING ITCHING RELIEVING EFFECT” (YANGSHENGTANG (ANJI) COSMETICS CO., LTD., priority 2019, published 2022)

Tested on: mast cells
Assay: Release of interleukin-4 (IL-4) from mast cells stimulated with Compound 48/80
Format: cell-based
Details: sample 4 h, then Compound 48/80 20 mg/L 2 h, 8 duplicate wells, model group 67.6 ± 9.9, control group 34.4 ± 7.9
Description: According to the following test method, the effects of the […] samples A-E as prepared above on the release of IL-4 from mast cells were tested.
Experimental principle: The specific antigen is crosslinked with the IgE antibody bound to the cell membrane, resulting in cell activation and rapid secretion of inflammatory mediators related to granulation (histamine, IL-4, IL-13, etc.). […] In this study, Compound 48/80 was used to stimulate mast cells to degranulate and release the inflammatory mediator IL-4 to investigate the protective efficacy of the test samples on the allergic reaction of mast cells.
Experimental materials: Mast cells were provided by the Animal Center of Zhejiang Academy of Medical Sciences. […]
Experimental method: Each of samples was prepared using RPMI1640 medium, and each of samples was provided with 8 duplicate wells. Mast cells were inoculated into a 96-well culture plate at a density of 5×10^6/mL, 90 μL per well, and added with 10 μL/well of a corresponding sample; cultured in a 5% CO2 incubator at 37° C., and taken out after 4 h; in addition to the control group, the other groups were added with a stimulus 48/80 (final concentration 20 mg/L), and continued to incubate in an incubator at 37° C. for 2 h, and then centrifuged at 1500 rpm for 5 mins to get the supernatant, and the content of IL-4 in the supernatant was detected by Elisa (interleukin-4) kit.

In the case of O=C(O)c1cc(=O)c2c(OCC(O)COc3cccc4oc(C(=O)O)cc(=O)c34)cccc2o1 [Positive drug, sodium cromoglycate], the “Release % (IL-4 release from cell models)” value is reported as 44.2 ± 12.3%.
